The source of these data is PMC5291098, “Molecular mutagenesis of ppGpp: turning a RelA activator into an inhibitor” (Scientific Reports, 2017).

The structures appear in SMILES notation. Entries after “also recorded” stand apart in the source; their conditions may differ. Where two headings read alike, the source gives them in different places.

The target in experiment [1] is T1, E. coli RelA (Escherichia coli, UniProt P0AG20).
T1 construct: made in house
Kind of experiment: Inhibition of [3H]GDP to [3H]ppGpp conversion by E. coli RelA activated by vacant 70S ribosomes and 100 μM ppGpp. The format is biochemical. The conditions noted are these: for IC50: 30 nM RelA, 0.5 μM vacant 70S, 100 μM ppGpp; for nHill (Hill coefficient of the titration fit): Supplementary Table 1, 4-parameter logistic model. Here is the method: For the initial characterization of compounds, we followed the inhibition of [^3H] GDP conversion to [^3H] ppGpp catalyzed by E. coli RelA in a simplified system in which RelA’s activity was induced by vacant 70S ribosomes and 100 μM of ppGpp[15]. Unlabeled ppGpp was added to reaction mixtures in order to linearize the kinetics of [^3H] ppGpp synthesis due to an activating effect on the RelA enzyme. We used a targeted library of 69 nucleotides belonging to several structural classes: ‘true’ ppGpp analogues; Relacin and its derivatives; pyrrolidine, azetidine, piperidine and acyclic phosphonates. Chemical structures of tested compounds and titrations in the RelA:70S:ppGpp system are presented in Supplementary Table 1.
Detailed description of experimental procedures can be found in Supplementary Text. Biochemical assays utilize in vitro translation[58] and stringent response[15] systems from E. coli purified components. Experiments were performed in HEPES:Polymix[58] buffer with either 5 (for enzymatically assembled initiation complexes) or 15 mM (for vacant 70 S, as well as non-enzymatically assembled programmed ribosomes) Mg^2+. Expression and purification of E. faecalis RelQ was performed as per Gaca (2015) and colleagues. GTPase and ppGpp synthesis were followed using TLC separation and radiochemical detection of ^3H-labelled nucleotides. Multiple round in vitro transcription assays were performed as per Bernardo et al.[49] with minor modifications. Inhibition efficiency (IC50) was calculated using 4-parameter logistic model (Hill equation) as per Sebaugh[60].
(§1) Thin layer chromatography (TLC) analysis of nucleotide mixtures
(§2) Both EF-G GTPase reaction and ppGpp synthesis by RelA were followed by TLC analysis followed by scintillation counting according to Mechold and colleagues, with modifications1. Time points from the reaction mixtures (5 μl, see below for details) were quenched by addition 4 μl 70% formic acid supplemented with a cold nucleotide standard used for UV-shadowing (10 mM GDP and 10 mM GTP) and spotted on PEI-TLC plates (Macherey-Nagel). TLC was run in buffer, plates dried, cut into sections guided by UV-shadowing and 3H radioactivity was quantified by scintillation counting in Optisafe-3 (Fisher) scintillation cocktail on Perkin Elmer Tricarb 2810TR counter. Conversion of substrate to product was quantified as described in Shyp et al. (2012)2.
Enzymatic assays with E. coli RelA
Screening: all experiments were performed in HEPES:Polymix, Mg2+ of 5 mM, 37 […]
μM ppGpp was pre-incubated at 37° C for 2 min and then reaction started by addition of 1 mM ATP, time points (5 μl) taken, quenched with formic acid and analyzed by TLC. Inhibition efficiency (IC50) was calculated using 4-parameter logistic model (Hill equation) as per Sebaugh (2011)3. […]

Experiment [2] concerns T2, E. coli EF-G.
T2 construct: made in house
The experiment is classed as biochemical. To be noted: up to 1 mM. Here is the method: as §1
as §2, with “(2012)2. […]” for “(2012)2.”
GTPase assays with E. coli EF-G
The reaction mixture contained 0.5 μM 70S, 0.1 μM EF-G, in HEPES:Polymix (25 mM Hepes 7.5/ 1 mM DTT / 5 mM Mg2+) pre-incubated for 2 minutes at 37°C prior to addition of 300 μM [3H]GTP substrate (Hartman), after which time points (5 μl) taken, quenched with formic acid and analyzed by TLC (see above). […]

Experiment [3] deals with T3, E. coli σ70-RNAP holoenzyme.
T3 construct: purchased Epicentre
The experiment in a line: Multiple round in vitro transcription by σ70-RNAP (rrnB P1 and rna1 promoters). To be noted: for Effect of DksA addition on RNAP inhibition, rrnB P1 promoter (in words): 2 μM DksA; for Inhibition of RNAP, rrnB P1 promoter (in words): absence of DksA, irrespective of presence or absence of 100 μM ppGpp. The experiment is classed as biochemical, Escherichia coli.
Experimental: Next, we tested their effects on RNAP. […] We used multiple round in vitro transcription driven from the rrnB P1, a well-characterized ppGpp/DksA inhibited promoter, as described earlier[49]. The assays were performed in the presence and absence of 2 μM DksA and/or 100 μM ppGpp (Fig. 5a).
Effect of inhibitors on rrnB P1 (−66 to +50) promoter transcription by RNAP. Graphs depicting inhibitor (0, 0.025, 0.05, 0.15, 0.4 and 0.6 mM) titrations performed at 30 °C in T-buffer with 0.5 nM template (σ^70-rrnB P1 promoter (pRLG6214)) and 5 nM σ^70-RNAP, in presence or absence of 100 μM ppGpp and/or 2 μM DksA. Error bars represent standard deviations of linear regression estimates, each experiment was performed at least three times.
The assays were performed as per Bernardo et al. (2006)4 with minor modifications. Reactions were carried out in T-buffer (50 mM Tris-HCl pH 7.5, 100 mM NaCl, 10 mM MgCl2, 1 mM dithiothreitol, 0.1 mM EDTA and 0.275 mg of BSA per ml) at 30°C. Inhibitors were titrated to final concentrations of 0, 0.025, 0.05, 0.15, 0.4 and 0.6 mM. E. coli s 70-RNAP holoenzyme (Epicentre, final concentration 5 nM) and template plasmid DNA containing s70-rrnB P1 promoter, (pRLG6214, final concentration 0.5 nM) was used for all experiments. Before initiation of transcription, E. coli s70-RNAP holoenzyme and T buffer were incubated at 30°C for 5 min. Above mix was added to predispensed mixture of inhibitor and the template plasmid DNA containing s70-rrnB P1 promoter (pRLG6214), incubated for further 20 min to initiate open complex formation. 2.5 µl of a mixture of ATP (ﬁnal concentration 0.5 mM), GTP and CTP (ﬁnal concentration 0.2 mM each), UTP (ﬁnal concentration 0.08 mM) and [a-32P]-UTP (5 µCi at > 3000 Ci/mmol, PerkinElmer) was added to initiate transcription by RNAP. After 7 min, 1 µl heparin (0.125 mg/ml ﬁnal concentration) was added to the reaction mixture to prevent re-initiation and further incubated for 5 min to allow completion of initiated transcripts. Transcription was terminated by addition of formamide loading buffer and samples were electrophoresed on a 7M urea-5% polyacrylamide gel and quantified by phosphorimaging.

Experiment [4] deals with ΔywaCΔyjbM B. subtilis. The experiment in a line: Growth of ΔywaCΔyjbM B. subtilis in valine drop-out S7 medium (functional test for Rel inhibition). The format is cell-based, Bacillus subtilis. The conditions noted are these: up to 1 mM (0 to 1000 µM). From the text: Finally, we tested the three of our most promising inhibitors (DR-4250, DR-M014 and DR-5163) for RSH inhibition in bacterial culture. For this we used the Gram-positive bacterium B. subtilis due to its better uptake of compounds as compared to Gram-negative species such as E. coli[50]. The functional test for RSH inhibition relied on the auxotrophy of (p)ppGpp-deficient (ppGpp^0) B. subtilis for methionine and branched-chain amino acids valine, leucine and isoleucine. The B. subtilis RSH repertoire consists of one multi-domain ribosome-associated enzyme Rel and two SAS, YwaC and YjbM[3][52]. Because the SAS RelQEf is refractory to inhibition by our test compounds (Supplementary Figure 2), we used a B. subtilis strain lacking SASs (ΔywaCΔyjbM), in which the sole source of (p)ppGpp is Rel[53]. Defined S7 medium[54] lacking valine supports the growth of ΔywaCΔyjbM B. subtilis, but not the ppGpp^0 stain (Supplementary Figure 5). […] This is indicative of the test compounds failing to inhibit Rel and thereby rendering the strain phenotypically ppGpp^0 (Supplementary Figure 5). A lack of cellular uptake is a likely explanation. […]
Growth assays with Bacillus subtilis BSB1 wild type strain
SAS deletion and ppGpp0 strain of B. subtilis5 were grown in S7 liquid medium6 except for amino acid requirements, which were met as described elsewhere 7. On 96-well plate, 90 µl of B subtilis starter culture was mixed with 10 µL of compound dilution (in 5 mM Tris pH 7.2) so that final OD600 was 0.025 (l = 1 cm).
Following incubation was without shaking at 37°C and growth was monitored with Tecan Infinite M200 at OD600 (raw OD600 values are reported). B. subtilis starter culture was prepared as follows. Late exponential phase cells in S7, with full set of amino acids, were diluted ≈10-fold in S7 lacking either valine or lysine so that, after addition of 8% DMSO, OD600 was 0.25. Next, cell suspensions were aliquoted, frozen in liquid nitrogen, and stored at -80°C. Just before the experiment, cells were thawed on ice and appropriate amount of media was […]
DywaC DyjbM BSB1 B. subtilis ppGpp0. BSB1 B. subtilis wild type strain as grown on S7 synthetic media8 drop-out media lacking valine which abolishes the growth of ppGpp0 (Drel DywaC DyjbM) strain due to valine auxotrophy (dashed line). […]
inhibit the Rel and render the strain ppGpp0.

Where [5] appears, read: 0.3 mM [3H]GDP, 1 mM ATP, read-out: IC50.
[6] abbreviates: 5 mM Mg2+, 37 °C, no unit beside the value, titration axis in mM, read-out: IC50 (Supplementary Table 1, example titration).

T1 sequence (P0AG20 whole entry): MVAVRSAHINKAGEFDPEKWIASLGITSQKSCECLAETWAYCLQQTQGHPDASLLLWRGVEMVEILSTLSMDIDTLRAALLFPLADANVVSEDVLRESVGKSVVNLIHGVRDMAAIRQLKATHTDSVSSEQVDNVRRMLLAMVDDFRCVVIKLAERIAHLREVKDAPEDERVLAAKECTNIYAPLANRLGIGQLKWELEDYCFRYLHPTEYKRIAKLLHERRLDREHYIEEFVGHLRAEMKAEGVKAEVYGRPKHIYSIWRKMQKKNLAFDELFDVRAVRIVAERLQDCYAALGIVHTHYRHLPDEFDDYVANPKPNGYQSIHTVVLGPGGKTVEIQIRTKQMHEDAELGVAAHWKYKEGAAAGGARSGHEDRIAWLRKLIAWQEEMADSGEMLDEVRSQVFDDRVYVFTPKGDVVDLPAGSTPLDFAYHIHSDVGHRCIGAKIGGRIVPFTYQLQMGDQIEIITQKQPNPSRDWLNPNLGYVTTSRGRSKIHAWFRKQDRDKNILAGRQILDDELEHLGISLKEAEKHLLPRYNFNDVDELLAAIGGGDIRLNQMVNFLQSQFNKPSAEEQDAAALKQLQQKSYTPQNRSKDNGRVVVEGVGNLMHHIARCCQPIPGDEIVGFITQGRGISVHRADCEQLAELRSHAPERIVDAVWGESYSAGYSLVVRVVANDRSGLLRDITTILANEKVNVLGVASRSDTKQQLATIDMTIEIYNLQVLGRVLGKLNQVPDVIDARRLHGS

As to `Nc1nc2c(ncn2C2OC(COP(=O)(O)OCP(=O)(O)O)C(OP(=O)(O)OCP(=O)(O)O)C2O)c(=O)[nH]1` (stereo not shown) [DR-4250, Guanosine 3’,5’-di(phosphonomethoxyphosphate)], the results for the IC50 in experiment [1] (setting [5]) and in experiment [1] (setting [6]) were 0.054 ± 0.003 mM and 0.053 ± 0.003 mM, respectively. Besides, in experiment [1], the “nHill (Hill coefficient of the titration fit)” value is recorded as 2.74 ± 0.5. The “Inhibitory effect on EF-G GTPase activity (in words)” value in experiment [2] was “no inhibitory effect”. Also, the “Effect of DksA addition on RNAP inhibition, rrnB P1 promoter (in words)” value in experiment [3] was “pronounced protective effect”. The “Inhibition of RNAP, rrnB P1 promoter (in words)” value in experiment [3] is “more potent inhibitors of RNAP then of RelA”. The “Inhibition of RNAP, ppGpp-insensitive promoter rna1 (in words)” value in experiment [3] (presence or absence of 100 μM ppGpp and/or 2 μM DksA (Supplementary Figure 4)) is “the same behavior”. Besides, the “Effect on growth of ΔywaCΔyjbM B. subtilis (in words)” value in experiment [4] is recorded as “did not affect bacterial growth; also recorded: does not affect the growth”.

Regarding `Nc1nc2c(ncn2C2CCN(C(=O)P(=O)(O)O)CC2)c(=O)[nH]1` [DR-M014], the results for the IC50 in experiment [1] (setting [5]) and in experiment [1] (setting [6]) were 0.121 ± 0.02 mM and 0.12 ± 0.02 mM, respectively. The “nHill (Hill coefficient of the titration fit)” value in experiment [1] came out at 1.9 ± 0.5. In addition, in experiment [2], the “Inhibitory effect on EF-G GTPase activity (in words)” value is given as “no inhibitory effect”. In addition, the “Effect of DksA addition on RNAP inhibition, rrnB P1 promoter (in words)” value in experiment [3] is recorded as “pronounced protective effect”. Besides, in experiment [3], the “Inhibition of RNAP, rrnB P1 promoter (in words)” value was “more potent inhibitors of RNAP then of RelA”. In addition, the “Effect on growth of ΔywaCΔyjbM B. subtilis (in words)” value is recorded as “does not affect the growth” in experiment [4] and “did not affect bacterial growth” in experiment [4] (listed as DR-M013).
